The text below walks through data of US20250098671A1, “CHITOSAN ENCAPSULATION OF OXYMATRINE AND TEA SAPONIN FOR USE IN PESTICIDAL ACTIVITY” (priority 2023, published 2025).

Data set [1] relates to Black Sigatoka. Nature of the data set: Field trials against black Sigatoka in bananas. Particulars: applied as tank mixes with tea tree oil. It is filed as in vivo, Mycosphaerella fijiensis. An excerpt:
Fungicides are combined in mixtures mainly: to widen the spectrum of antifungal activity and to extend its duration; to exploit the synergistic interaction between the compounds, whereby the overall activity can be increased or the amounts used can be reduced without loss of activity; and to delay or reduce the emergence of resistant strains. […] Although in principle, combinations of synthetic antifungal compounds could be used to reduce the chemical load of any particular compound applied to crops, concerns about resistance development at lower doses have militated against their use as advised by the Fungicide Resistance Action Committee (FRAC).

Data set [2] concerns root-knot nematodes (Meloidogyne spp.). Put plainly: Nematocidal activity on hatched root-knot nematodes in Petri dish. As to conditions: 15 nematodes; for Nematocidal efficiency (%): up to 3 days.
Procedure: The tomato roots infected with root-knot nematodes were washed with running water and were then cut to a size of about 1 cm, after which 50 g of the cut roots were placed in a 500 ml round-bottom flask containing 200 ml of 0.5% sodium hypochloride (NaOCl), stopped with a rubber stopper, and shaken vigorously for 3 min to sterilize the roots and at the same time burst the egg bag. Thereafter, the solution was passed through a sieve in which 200 mesh was superimposed on 500 mesh, and washed with distilled water, so the eggs of the root-knot nematodes from which the NaOCl solution was removed were recovered.
Next, the eggs of the root-knot nematodes thus recovered were surface-sterilized with 0.5% NaOCl for 10 min, washed thoroughly with sterile distilled water, placed in a phosphate buffer (1%) containing sterilized normal saline, and hatched in an incubator at 25° C.
Thereafter, each mixed solution was diluted to 2000 ppm, 2 to 3 ml thereof was poured into a Petri dish, after which 15 hatched root-knot nematodes were placed in the Petri dish, and nematocidal activity was measured and the results thereof are shown in Table 1 below.
The number of root-knot nematodes used for the experiment on the number of killed root-knot nematodes was 15 at each dilution factor.
The conditions of data set [3]: all the antioxidant assay systems; cited from earlier work.
Another data set deals with plant. Nature of the data set: Plant phytotoxicity noted in development assessments.
For a further data set, the system named is mildew, and anthracnose. Nature of the data set: Fungicide activity of Geraniol oil. As to conditions: 500 to 4,000 ppm.
The conditions of data set [4]: cited from earlier work.
Data set [5] concerns black Sigatoka. Put plainly: Black Sigatoka activity assessed in development of embodiments. Particulars: in vivo.
Data set [6] deals with mosquitos and midge (Ae. aegypti, Culex species mosquitoes, Anopheles species mosquitoes). Put plainly: Mosquito and midge adult activity. Format: in vivo. Particulars: 500 to 8,000 ppm.
Data set [7] deals with root-knot nematodes (Meloidogyne spp.). Nature of the data set: Nematocidal activity assessed in development of embodiments. Format: in vivo. The source says: Other embodiments may include the use of other monoterpene alcohols in place of geraniol. In some embodiments, a plant extract selected from the group consisting of a oxymatrine, neem extract, an Ostericum koreanum extract, Quillaja saponaria Molina and a clove extract may be added.

A further data set concerns tomato seedlings. Nature of the data set: Phytotoxicity of geraniol, drenching treatment of potted tomato seedlings. Format: in vivo. Particulars: for Phytotoxicity symptom / Extent of phytotoxicity (0-5): Tomato, 1 week after treatment; for Extent of phytotoxicity (0-5): 50 ml drench. The source says: Sterilized soil was uniformly mixed, 300 g thereof was then placed in each pot, and tomato seedlings not infected with root-knot nematodes were transplanted thereto.

Another data set relates to multiple insects. Nature of the data set: Insecticidal activity on multiple insects. Format: in vivo. As to conditions: 500 to 6,000 ppm.
Where [8] appears, read: 2000 ppm dilution, mixed 1:1 with emulsifier PLE9.

As to `CC1COC(Cn2cncn2)(c2ccc(Oc3ccc(Cl)cc3)cc2Cl)O1` (stereo not shown) [difenoconazole], the “control of Black Sigatoka” value in the data set on Black Sigatoka [1] is reported as “effectively controlled Black Sigatoka”.

`C/C=C(\C)C(=O)O[C@H]1C[C@@H](OC(C)=O)[C@@]2(C(=O)OC)CO[C@H]3[C@@H](O)[C@@](C)([C@]45O[C@@]4(C)[C@H]4C[C@@H]5O[C@@H]5OC=C[C@@]54O)[C@H]4[C@]1(CO[C@]4(O)C(=O)OC)[C@@H]32` [Azadirachtin, azadirachtin]: in [2] (setting [8]), the “number of killed root-knot nematodes, 1 day” value (“number … 1 day” for short) amounted to 7; the “number of killed root-knot nematodes, 2 days” value (shortened to “number … 2 days”) amounted to 8; the “number of killed root-knot nematodes, 3 days” value (shortened to “number … 3 days”) is 10. Moreover, the “Nematocidal efficiency (%)” value in data set [2] (2000 ppm dilution) is recorded as 66.7%.

In the case of `O=c1c(O)c(-c2ccccc2)oc2cc(O)cc(O)c12` [Galangin, galangin], the antioxidant activity entry in [3] is “comparable activity with that of AEP and EEP”.

Regarding `CON=C(C(=O)OC)c1ccccc1CON=C(C)c1cccc(C(F)(F)F)c1` [trifloxystrobin], in the data set on Black Sigatoka [1], the “control of Black Sigatoka” value is reported as “effectively controlled Black Sigatoka”.

For the compound `CC(C)=CCC/C(C)=C/CO` [Geraniol, 3,7-dimethyl-2,6-octadien-1-ol], the results for the plant phytotoxicity entry in the data set on plant (500 to 4,000 ppm) and in the data set on plant (4,500 ppm or more) were “without plant phytotoxicity” and “plant phytotoxicity was shown to occur”, respectively. Besides, the “plant phytotoxicity or water toxicology” value with plant (500 to 8,000 ppm) is given as “without plant phytotoxicity or water toxicology”. In the data set with mildew, and anthracnose, the fungicidal control entry was “superior fungicidal control”. Besides, in data set [4] (most common organic solvents), the “solubility in organic solvents” value is listed as “soluble in most common organic solvents”. Besides, the solubility in water result in [4] (water) is on record as “insoluble in water”. In addition, in the data set with black Sigatoka [5], the “control of the black sigatoka fungus” value is recorded as “also effective against the fungus”. Moreover, the “mosquito and midge control” value in [6] is “superior mosquito and midge control”. Also, in data set [7] (500 to 4,000 ppm), the nematocidal control result is reported as “superior nematocidal control”. Further, in [7] (utilized alone), the nematocidal activity entry is recorded as “superior nematocidal activity”. Besides, the “number … 1 day” value in data set [2] (setting [8]) is listed as 15ª; in data set [2] (Geraniol 2,000 ppm), 15. Moreover, the “phytotoxicity symptoms in tomato seedlings” value was “all tomato seedlings collapsed and withered” in the data set on tomato seedlings (4000 ppm or more); “no particular phytotoxicity symptoms” in the data set with tomato seedlings (concentration range of 100 ppm to 3,000 ppm). Besides, the Phytotoxicity symptom entry with tomato seedlings (Geraniol 100 ppm), in the data set with tomato seedlings (Geraniol 200 ppm), in the data set with tomato seedlings (Geraniol 330 ppm), in the data set on tomato seedlings (Geraniol 500 ppm), in the data set with tomato seedlings (Geraniol 1,000 ppm) and in the data set with tomato seedlings (Geraniol 2,000 ppm) was “No” each time. The Phytotoxicity symptom result is “No” in the data set on tomato seedlings (Geraniol 3,000 ppm); “Withered” in the data set with tomato seedlings (Geraniol 4,000 ppm); “Withered” in the data set on tomato seedlings (Geraniol 5,000 ppm); “Withered” with tomato seedlings (Geraniol 10,000 ppm); “Withered” in the data set with tomato seedlings (Geraniol 20,000 ppm). The “Extent of phytotoxicity (0-5)” value in the data set with tomato seedlings (Geraniol 100 ppm), with tomato seedlings (Geraniol 200 ppm), in the data set with tomato seedlings (Geraniol 330 ppm), in the data set on tomato seedlings (Geraniol 500 ppm), in the data set with tomato seedlings (Geraniol 1,000 ppm) and in the data set with tomato seedlings (Geraniol 2,000 ppm) was 0 throughout. Moreover, the “Extent of phytotoxicity (0-5)” value was found to be 0 with tomato seedlings (Geraniol 3,000 ppm); 5 in the data set with tomato seedlings (Geraniol 4,000 ppm); 5 with tomato seedlings (Geraniol 5,000 ppm); 5 in the data set with tomato seedlings (Geraniol 10,000 ppm); 5 in the data set on tomato seedlings (Geraniol 20,000 ppm).

For pyrethrin, in data set [2] (setting [8]), the “number … 1 day” value amounted to 5; the “number … 2 days” value worked out at 6; the “number … 3 days” value was 11. The “Nematocidal efficiency (%)” value in data set [2] (2000 ppm dilution) is reported as 73.3%.

Regarding `O=C1CCC[C@@H]2[C@H]3CCC[N+]4([O-])CCC[C@@H](CN12)[C@@H]34` (stereo partly shown) [Oxymatrine, oxymatrine], the plant phytotoxicity result in the data set with plant (500 to 6,000 ppm) is “without plant phytotoxicity”. The insecticidal control result in the data set with multiple insects was “superior insecticidal control”. In addition, in data set [2] (setting [8]), the “number … 1 day” value came out at 7; the “number … 2 days” value is reported as 9; the “number … 3 days” value amounted to 10.
